Patent publication US12539281B2 (priority 2021, dated 2026)
Where two headings read alike, the source gives them in different places.

Assays:
[1] = test system: blood-brain barrier (BBB); test: Comparison of intracardiac EA and NEO100 mediated BBB opening, EB dye (Comparative Experiment 19, Experiment 20); assay type: in vivo, mice
Procedure: Intracardiac injected various concentrations of EA (at 25%, 20%, 3%, 0.3%, and 0.1%, 0.03%, 0.01%) and NEO100 (at 25%, 20%, 3%, 0.3%, and 0.1%, 0.03%, 0.01%) are used on mice to test their effects on BBB disruption and evaluated by the observation of extravasated EB dye in the brain tissues. […] Photographs of the perfused brain tissues from the experimental mice treated with […] EA and NEO100 are taken for observation and comparison.
The same procedure as experiment 19 was performed with IA 0.3% NEO100 with 2% EB dye solution.

[2] = Comparison of the toxicity of IA NEO100 and IA EA (Experiment 21)
Procedure: The safety profile of IA 0.3% NEO100 vs. IA 0.3% EA are compared. […] There are 15 experimental mice in each testing group. The potential adverse effects are evaluated.

[3] = test system: blood-brain barrier (BBB); details: IA NEO100, IA mannitol; stated for comparison, no test described; cited from earlier work
[4] = cited from earlier work
[5] = test system: blood-brain barrier (BBB); test: IA ethyl alcohol, NEO100 or mannitol mediated BBB disruption, extravasated EB dye in perfused mouse brain (Experiments 1-3); assay type: in vivo, mice; details: for EB dye / EB dye penetration level / Patchy, or punctate pattern of EB dye: perfused mouse brain
Procedure: The method of IA and IC injection is similar to the IV push in the clinic, which comprises essentially the steps of: • pushing the injection composition at a particular infusion flow rate immediately after the placement of the IA catheter into the internal carotid artery (ICA) or the insertion of the injection needle into the left ventricle via the ultrasound-guided intracardiac (IC) puncture at room temperature.
When performing the IA and IC injections, the infusion flow rate is about 5-7 μl/second (0.3-0.45 ml/min), the infusion volume is about […] of the body weight (at 1 μl/g, volume/weight ratio), and USP purified water or sodium chloride is used to reconstitute varied EA solutions at room temperature.
Intracardiac injection of NEO100 or EA can be carried out through the procedure of ultrasound-guided intracardiac (IC) injection. […] The mouse is anesthetized in an induction chamber using 2-3% isoflurane in 100% oxygen at a rate of 0.2-0.5 L/min. Fur over the thorax area is removed and the animal is placed in a stereotactic frame in supine position, securing the upper and lower limbs to avoid body movement. The ultrasound transducer is placed above the chest of the animal, and the injection syringe is anchored to a platform to avoid erratic needle movements. An electrocardiogram monitor is used to monitor heart function during the intracardiac injection.
EB dye is used as the non-BBB permeable substance.
Photographs of the perfused brain tissues of the experimental mice after treatment are taken.
Extravasated EB dye is used as the non-BBB permeable substance.

[6] = test system: blood-brain barrier (BBB)
[7] = IA injection 0.3%, 15 mice per group
[8] = IA injection 0.3%, 15 mice per group, number of mice

What does the source list for `C=C(C)[C@@H]1CC=C(CO)CC1` [NEO100, perillyl alcohol]?
brain finding in sudden-death mouse (inferior view) ([1]; IA 0.3% NEO100 with 2% EB dye, mouse died right after treatment): bleeding and a blood clot; pattern of breached BBB, coronal section ([1]; IA 25% NEO, mice): random, haphazard, sporadic, patchy, or punctate pattern; dose response of BBB disruption ([1]; intracardiac 25%, 20%, 3%, 0.3%, 0.1%, 0.03%, 0.01%, mice): dose-dependent manner; Mortality [2, 7]: 53.33%; tested animals that experienced adverse effects [2, 7]: almost all; Immediate Sudden Death [2, 8]: 3; Intermediate-lasting epilepsy post-injection leading to death [2, 8]: 2; Long-lasting epilepsy post-injection leading death [2, 8]: 3; Moderate-lasting epilepsy post-injection and survival to fully recovery [2, 8]: 3; Transient, mild, or occasional epilepsy post-injection and survival to fully recovery [2, 8]: 4; overall mortality rate ([2]; repeated comparative experiments of IA EA and IA NEO100): around 60%; interval window of the breached BBB [3]: 4 h; solubility in water [4]: water-insoluble; EB dye ([5]; IA agent at 0.1%): Observed; EB dye penetration level ([5]; IA agent at 0.1%): Few Patchy; Patchy, or punctate pattern of EB dye ([5]; IA agent at 0.1%): Observed; EB dye ([5]; IA agent at 0.3%): Observed; EB dye penetration level ([5]; IA agent at 0.3%): Widely; Patchy, or punctate pattern of EB dye ([5]; IA agent at 0.3%): Observed; EB dye ([5]; IA agent at 3%): Observed; EB dye penetration level ([5]; IA agent at 3%): Widely; Patchy, or punctate pattern of EB dye ([5]; IA agent at 3%): Observed; EB dye ([5]; IA agent at 5%): Observed; EB dye penetration level ([5]; IA agent at 5%): Widely; Patchy, or punctate pattern of EB dye ([5]; IA agent at 5%): Observed

For `OC[C@@H](O)[C@@H](O)[C@H](O)[C@H](O)CO` [mannitol], which “EB (induced BBB disruption)” value ([6]; group A: 1800 μl 25% mannitol infused in 30 seconds) is on record?
The value was “observed”.

And the “EB (induced BBB disruption)” value ([6]; group C: 300 μl 25% mannitol at regular speed in 1 minute, warmed to 37° C.)?
Its value is “not observed”.

What about the “interval window of the breached BBB” value [3] of the same molecule?
Its value is 6 to 7 h.

What about the “EB dye penetration level” value ([5]; IA agent at 0.1%) of the same molecule?
The value was “Not”.

And the “EB dye penetration level” value ([5]; IA agent at 0.3%)?
The value was “Not”.

And the “EB dye penetration level” value ([5]; IA agent at 3%)?
The value was “Not”.

And the “EB dye penetration level” value ([5]; IA agent at 5%)?
Its value is “Not”.

And the brain damage ([5]; IA mannitol at 0.1%, 0.3%, 3%, and 5%, mice)?
Its brain damage is “Some brain damage is observed”.

And the “disrupted BBB after IC mannitol” value ([5]; IC application of varied volumes of high concentrations of mannitol, mice)?
The value was “No disrupted BBB is observed”.
